Data on six compounds can be found in US20080118580A1, “ADHESION INHIBITION OF FUNGI” (priority 2001, published 2008).

The test system of assay [1] is Candida albicans strain SC5314. In words: Test for inhibition of the formation of hyphae. The assay is classed as cell-based. Particulars: for hyphae formation (in words): at the concentrations used. The procedure: An initial culture of the Candida albicans strain SC5314 was grown overnight in minimal medium (0.67% yeast nitrogen base w/o amino acids (Difco), 2% glucose) up to an optical density of 1 at 600 nm, and washed once in sterile double-distilled H2O. For the induction of hyphae, 100 μl to 900 μl of YPS (1% yeast extract, 2% peptone, 10% horse serum (Sigma)) were added, and incubated at 37° C. with shaking. To test the inhibitory action of different substances, farnesol (50 μl/l), propolis extract (200 ppm in ethanolic solution, Sigma, P 5182, origin: Alsace, France) or fucoidan (2 mg/ml, Sigma, F 5631) were added to the medium. A culture of 100 μl of cell suspension in 900 μl of YPD medium (1% yeast extract, 2% peptone, 2% glucose) which was incubated at 30° C. with shaking was used as the control. To quantify the formation of hyphae, 2×100 cells were counted under the microscope (Zeiss Axioscope) every 20 min. and the germ tubes formed calculated as a percentage of the total cells.

Assay [2] deals with C. albicans. In words: Growth test. The assay is classed as cell-based, Candida albicans. The conditions noted are these: for Growth rate: YPD medium, 30° C., over 10 hours, reference 0.55. The procedure:
The growth rates were measured over 10 hours in the YPD medium already described above. The optical density was initially set at 0.1 OD and the cultures were incubated at 30° C.
Here it was assumed that an optical density of 1 measured at wavelength 600 nm corresponds to about 10^7 cells.

In assay [3] the test system is C. albicans culture (strain SC5314). In words: Adhesion test on textiles (tetrazolium blue staining, relative light reflection). Type of assay: cell-based, Candida albicans. Here is the method:
For assessment of the inhibitory action of different substances on the adhesion of fungi, a procedure with which this adhesion to textiles can be determined semi-quantitatively was developed.
A 50 ml C. albicans culture (strain SC5314) was grown overnight with shaking in a conical flask at 30° C. up to an optical density (OD) of ca. 1 (measured at 600 nm with a spectrophotometer). After washing once in water, the cells were again incubated for one hour at 30° C. with shaking. Next, 2.5 ml of the culture were diluted in 22.5 ml of YPD medium (1% yeast extract, 2% peptone, 2% glucose) or YPS medium (1% yeast extract, 2% peptone, 10% horse serum). The YPD cultures were incubated with shaking for 2 hours at 30° C., and the YPS cultures for 2 hours at 37° C. for the induction of hyphae.
As desired, test substance was added to the media. In addition a 2.5×2.5 cm piece of test fabric (polyester microfibers) was added to the media. After incubation, the textile pieces were washed three times with wash liquor (Perwoll powder, 12 ml/l water) and twice with water (5 min. with shaking each time), then transferred to a 6-well plate and covered with a layer of YPD-tetrazolium blue agar (1% yeast extract, 2% peptone, 2% glucose, 1.5% agar, 0.5 mg/ml tetrazolium blue chloride).
The depth of the blue coloration due to enzymatic conversion of the dyestuff tetrazolium blue chloride (3,3′-[3,3′-dimethoxy(1,1′-biphenyl)-4,4′-diyl]-bis-[2,5-diphenyl-2H-tetrazolium] dichloride (Sigma, T4375) by cellular dehydrogenases of adhered C. albicans served as a measure for the number of adhered Candida cells and was measured by measurement of the relative light reflection (measurement geometry d/8°) with a differential calorimeter (Dr. Lange Micro Color). The instrument was calibrated in accordance with the manufacturer's instructions. For this, the textile patches were dissolved out from the agar and subjected to the measurement with the differential calorimeter. In accordance with DIN 5033, the differential calorimeter determines the diffuse reflection of the samples at an angle of 8°.

Assay [4] has as its system Candida albicans. In words: Wash tests, contamination with Candida albicans. Type of assay: cell-based. The conditions noted are these: addition of farnesol to detergent, versus same detergent without. Here is the method: The wash tests were performed in standard domestic washing machines (Miele W 918 Novotronic), which had previously been disinfected, in the delicates program at 30° C. The fungal cells were applied onto textile supports (polyamid, 2.5×2.5 cm) (2×10^5 cells/microbe support) and washed together with 3.5 kg of disinfected fill laundry with the detergent formulae. As the control, the wash was performed with the same detergent without farnesol. After the washing and drying in the air, both the residual microbial burden and also the microbial transfer to other, sterile textiles were determined.
The experiments were performed with the detergents A (addition of farnesol) and B (reference).
75 ml of the liquid detergent is added; this corresponds to a farnesol concentration of 20 ppm in the wash liquor.

Where [5] appears, read: description, no concentration given.

As for `O=C(O)/C=C/c1ccccc1` [Trans-cinnamic acid, trans-cinnamic acid], the “Effective inhibitory concentration (hyphae formation inhibiting concentration)” value (shortened to “Effective inhibitory concentration”) in assay [1] came out at 0.01% wt. %.

For `CC(C)=CCC/C(C)=C/CO` [Geraniol, geraniol], the “Effective inhibitory concentration” value in assay [1] turned out to be 0.01% wt. %.

Compound `CCO` [Ethanol] showed a Growth rate in assay [2] (2 wt. %) of 0.5 h⁻¹.

Take `CC(C)=CCCC(C)=CCCC(C)=CCO` [Farnesol, farnesol]: the Relative light reflection in assay [3] (0.0025 wt. % test substance, polyester microfiber fabric, higher reflection = fewer adhered cells (YPD reference 48.7, YPS 44.7)) is 49.3. Moreover, the “adhesion of fungi to textiles (in words)” value in assay [3] (concentrations of Table 1) was “reduction in the adhesion of fungi to textiles down to almost complete inhibition of the adhesion”. For the same compound, in assay [3] (in solutions which contain the substance), the “adhesion of fungal cells to surfaces (in words)” value is on record as “scarcely or not at all”. Also, the Growth rate in assay [2] (0.0025 wt. %) amounted to 0.51 h⁻¹. The “Number of hyphal cells formed” value in assay [1] (YPS + farnesol 0.005 wt. %, t 0 min, 37° C., YPS alone 0) stood at 0; in assay [1] (YPS + farnesol 0.005 wt. %, t 20 min, YPS alone 0) it was 0; in assay [1] (YPS + farnesol 0.005 wt. %, t 40 min, YPS alone 15), 0; in assay [1] (YPS + farnesol 0.005 wt. %, t 60 min, YPS alone 75), 3. For the same compound, the “hyphae formation (in words)” value in assay [1] is given as “essentially complete prevention”. Moreover, in assay [4], the “cross contamination of other laundry items (in words)” value is recorded as “completely prevented”. Further, in assay [4], the “residual microbial burden (in words)” value is recorded as “drastically reduced”.

For fucoidan, in assay [2] (setting [5]), the “cell growth (in words)” value is “not affected”. For the same compound, the “Number of hyphal cells formed” value came out at 0 in assay [1] (YPS + fucoidan 0.2 wt. %, t 0 min, YPS alone 0); 0 in assay [1] (YPS + fucoidan 0.2 wt. %, t 20 min, YPS alone 0); 4 in assay [1] (YPS + fucoidan 0.2 wt. %, t 40 min, YPS alone 15); 25 in assay [1] (YPS + fucoidan 0.2 wt. %, t 60 min, YPS alone 75). Moreover, in assay [1], the “hyphae formation (in words)” value is listed as “marked reduction”. For the same compound, the “formation of hyphae by Candida albicans (in words)” value in assay [1] (setting [5]) is on record as “significantly reduced”.

Regarding `CC=Cc1ccc(OC)cc1` [Anethole, 1-methoxy-4-(1-propenyl)benzene], the “Effective inhibitory concentration” value in assay [1] is 0.10% wt. %.
